Reference: ChEMBL document CHEMBL1129407, “Synthesis and evaluation of heterocyclic carboxamides as potential antipsychotic agents” (J Med Chem, 1996)

What was measured:
[1] = target: T1, 5-hydroxytryptamine receptor 1A (Mus musculus, UniProt Q64264); test: Inhibitory activity against serotonin 5-hydroxytryptamine 1A receptor from mice.
T1 sequence (Q64264 whole entry): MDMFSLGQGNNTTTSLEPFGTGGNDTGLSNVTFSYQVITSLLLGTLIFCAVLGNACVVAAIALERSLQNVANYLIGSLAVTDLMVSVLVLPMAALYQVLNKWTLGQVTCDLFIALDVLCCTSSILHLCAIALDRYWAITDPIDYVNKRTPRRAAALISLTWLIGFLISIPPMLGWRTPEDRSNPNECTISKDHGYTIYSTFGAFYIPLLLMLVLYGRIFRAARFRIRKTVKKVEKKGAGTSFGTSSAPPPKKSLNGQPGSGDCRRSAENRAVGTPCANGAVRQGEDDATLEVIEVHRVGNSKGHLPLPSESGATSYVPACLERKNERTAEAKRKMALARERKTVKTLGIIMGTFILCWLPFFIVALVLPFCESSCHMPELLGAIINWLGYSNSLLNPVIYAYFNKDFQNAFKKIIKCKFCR

[2] = target: Serotonin 2 (5-HT2) receptor (Mus musculus, UniProt Q02152+P34968+P35363); test: Inhibitory activity against serotonin 5-hydroxytryptamine 2 receptor from mice.; type: protein assay
D(2) dopamine receptor [3] = target: T2, D(2) dopamine receptor (Mus musculus, UniProt P61168); test: Inhibition of mouse Dopamine receptor D2
T2 sequence (P61168 whole entry): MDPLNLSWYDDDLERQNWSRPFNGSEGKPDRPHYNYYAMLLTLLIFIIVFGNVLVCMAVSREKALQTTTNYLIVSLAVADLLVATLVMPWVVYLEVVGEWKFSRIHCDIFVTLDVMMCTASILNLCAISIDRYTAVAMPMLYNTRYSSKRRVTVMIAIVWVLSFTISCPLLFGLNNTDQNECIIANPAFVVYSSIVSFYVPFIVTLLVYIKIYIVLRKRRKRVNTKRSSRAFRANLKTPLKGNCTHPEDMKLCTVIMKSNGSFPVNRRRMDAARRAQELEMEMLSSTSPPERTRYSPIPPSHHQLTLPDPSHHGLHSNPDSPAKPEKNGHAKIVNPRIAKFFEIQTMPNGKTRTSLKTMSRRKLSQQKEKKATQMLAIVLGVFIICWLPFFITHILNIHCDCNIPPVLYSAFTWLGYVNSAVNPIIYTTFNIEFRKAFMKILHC

Mus musculus [4] = test: Compound was tested for antagonist activity against apomorphine-induced mouse climbing (ip). using in vivo method; type: functional
D(2) dopamine receptor [5] = target: T2, D(2) dopamine receptor; test: Inhibitory activity against Dopamine receptor D2 from mice
Mus musculus [6] = test: Compound was tested for antagonist activity against apomorphine-induced mouse climbing (po). using in vivo method; type: functional
Mus musculus [7] = test: Compound was tested for antagonist activity against apomorphine-induced mouse stereotypy(per orally - po). using in vivo method; type: functional
Mus musculus [8] = species on record: Mus musculus; test: Compound was tested for induction of catalepsy in mouse.; type: functional
Mus musculus [9] = test: Compound was tested for antagonist activity against apomorphine-induced mouse climbing(intraperitoneally - ip). using in vivo method; type: functional
Mus musculus [10] = test: Compound was tested for antagonist activity against apomorphine-induced mouse climbing(per orally - po). using in vivo method; type: functional
Mus musculus [11] = species on record: Mus musculus; test: Compound was tested for induction of catalepsy in mouse; type: functional
Mus musculus [12] = test: Compound was tested for antagonist activity against apomorphine-induced mouse stereotypy (po) using in vivo method; type: functional
[13] = Ratio of ED50 for induction of catalepsy to ED50 for antagonism of apomorphine-induced climbing.; type: functional
[14] = Ratio of ED50 for antagonism of apomorphine induced stereotypy to ED50 for antagonism of apomorphine-induced climbing.; type: functional
Mus musculus [15] = test: Compound was tested for antagonist activity against apomorphine-induced mouse climbing (po) using in vivo method; type: functional
Mus musculus [16] = test: Compound was tested for antagonist activity against apomorphine-induced mouse climbing (ip) using in vivo method; type: functional

SMILES | IC50 [1] [nM] | IC50 [2] [nM] | IC50 (D(2) dopamine receptor [3]) [nM] | IC50 (D(2) dopamine receptor [5]) [nM] | ED50 (Mus musculus [4]) [mg/kg] | ED50 (Mus musculus [6]) [mg/kg] | other results
Nc1cccnc1C(=O)NCCCCN1CCN(c2nsc3ccccc23)CC1 | 3.8 | 8.3 | – | – | – | – | –
Nc1cnccc1C(=O)NCCCCN1CCN(c2nsc3ccccc23)CC1 | 7 | 1.5 | – | – | – | – | –
O=C(NCCCCN1CCN(c2nsc3ccccc23)CC1)c1[nH]nc2ccccc12 | 3.6 | 0.35 | 2.2 | – | < 25 | 31.8 | –
O=C(NCCCCN1CCN(c2nsc3ccccc23)CC1)c1c[nH]c2ccccc12 | 5.8 | 1.3 | – | 14 | > 25 | – | –
Nc1ccncc1C(=O)NCCCCN1CCN(c2nsc3ccccc23)CC1 | 5.1 | 3.1 | – | 4.7 | > 25 | – | –
O=C(NCCCCN1CCN(c2nsc3ccccc23)CC1)c1cccc2cccnc12 | 4.3 | 2.4 | – | 14 | < 25 | 54.4 | –
Nc1c(C(=O)NCCCCN2CCN(c3nsc4ccccc34)CC2)sc2ccccc12 | 5.8 | 0.85 | 5.8 | – | 2.2 | 51.6 | –
Cc1nc2n(c(=O)c1CCN1CCC(c3noc4cc(F)ccc34)CC1)CCCC2 [RISPERIDONE] | 430 | – | 23 | – | – | – | ED50 (Mus musculus [7]): 3.2 mg/kg; ED50 (Mus musculus [8]): 1.4 mg/kg; ED50 (Mus musculus [9]): 0.3 mg/kg; ED50 (Mus musculus [10]): 0.9 mg/kg
O=C(NCCCCN1CCN(c2nsc3ccccc23)CC1)c1cccc2c1NCC2 | 4.3 | 3.4 | 34 | – | 2.6 | 18.6 | –
O=C(NCCCCN1CCN(c2nsc3ccccc23)CC1)c1cccc2[nH]cnc12 | 4.2 | 0.29 | – | 7.6 | > 25 | – | –
O=C(NCCCCN1CCN(c2nsc3ccccc23)CC1)c1cccnc1 | 4.9 | 2.9 | 47 | – | 5.2 | 15.5 | –
O=C(NCCCCN1CCN(c2nsc3ccccc23)CC1)c1ccncc1 | 6.6 | 2.3 | – | 25 | – | – | ED50 (Mus musculus [15]): 34 mg/kg; ED50 (Mus musculus [16]): 4.6 mg/kg

Now from value to compound, other results behind:

IC50 [1] [nM] | IC50 [2] [nM] | IC50 (D(2) dopamine receptor [3]) [nM] | IC50 (D(2) dopamine receptor [5]) [nM] | SMILES | ED50 (Mus musculus [4]) [mg/kg] | ED50 (Mus musculus [6]) [mg/kg] | other results
1.9 | 2.4 | 28 | – | O=C(NCCCCN1CCN(c2nsc3ccccc23)CC1)c1cccc2c1NCCC2 | < 25 | – | –
2 | 2.3 | – | 11 | Nc1sccc1C(=O)NCCCCN1CCN(c2nsc3ccccc23)CC1 | 4.8 | > 25 | –
2.7 | 1.2 | 28 | – | O=C(NCCCCN1CCN(c2nsc3ccccc23)CC1)c1cccc2cc[nH]c12 | – | – | –
3.3 | 1.5 | 7.8 | – | Nc1ncccc1C(=O)NCCCCN1CCN(c2nsc3ccccc23)CC1 | 6.4 | 17.1 | –
2.8 | 1.5 | 24 | – | O=C(NCCCCN1CCN(c2nsc3ccccc23)CC1)c1ccccn1 | – | – | ED50 (Mus musculus [9]): < 25 mg/kg; ED50 (Mus musculus [10]): 16.6 mg/kg
3.5 | 2.5 | 6 | – | Nc1cscc1C(=O)NCCCCN1CCN(c2nsc3ccccc23)CC1 | 1.7 | 12.6 | –
1.3 | 1.3 | 9.6 | – | Nc1ccsc1C(=O)NCCCCN1CCN(c2nsc3ccccc23)CC1 | 0.9 | 9.7 | ED50 (Mus musculus [11]): 69.3 mg/kg; ED50 (Mus musculus [12]): 57.9 mg/kg; Ratio [13]: 7; Ratio [14]: 6
